The text below walks through data of patent publication US12491185B2, “Inhibitors of mPTP” (NRG Therapeutics Ltd, priority 2023, dated 2025).

Structures are written as SMILES. Some results are limits rather than exact numbers.

In the assay the test system is mPTP. Nature of the assay: mPTP activity (Ca2+ retention) assay in isolated rat liver mitochondria. In kind it is biochemical. As to conditions: examples tested by different contract research organisations, believed comparable. The text has this:
Pharmacological inhibition or modulation of the mPTP can be measured in well characterised ‘Ca^2+ retention’ assays performed in isolated mitochondria. In vitro, isolated mitochondria rapidly sequester exogenous Ca^2+ until the intramitochondrial Ca^2+ concentration reaches the threshold for mPTP activation. Once the pore is activated, mitochondrial integrity is compromised and the stored Ca^2+ is released. The distribution of Ca^2+ between extra- and intra-mitochondrial compartments can be measured in real time with the use of membrane-impermeant Ca^2+ sensitive fluorescent dyes. Depending on the configuration of the assay, inhibition or modulation of the mPTP either delays the opening of the pore or increases the concentration of Ca^2+ required to induce mPTP opening.
MPTP activity was measured in mitochondria freshly isolated from female Sprague Dawley (250 to 300 gram) rat livers using the following method. Cervical dislocation was performed on the rat. The liver was then perfused in-situ with −40 ml cold Dulbecco's Phosphate Buffered Saline (DPBS) prior to dissection and transferred into 30 ml Isolation Buffer (250 mM Sucrose, 10 mM KCl, 1 mM EGTA, 1 mM EDTA, 25 mM HEPES, adjusted to pH 7.5 with 1M NaOH). Each lobe of the liver was then removed from the buffer, minced using tweezers and a scalpel into −5 mm pieces then transferred into a 50 ml Potterton dounce homogenization tube on ice containing 30 ml ice-cold centrifugation buffer (300 mM Trehalose, 25 mM HEPES, 1 mM EGTA, 1 mM EDTA, 10 mM KCl, adjusted to pH 7.5 with 1M NaOH and supplemented with 0.1% bovine serum albumin (BSA) and complete protease inhibitor cocktail (one tablet of inhibitor per 50 mls of buffer). Homogenisation was carried out using a teflon pestle at 1800 rpm. The slurry was centrifuged at 800 g for 10 min at 4° C., then the supernatant centrifuged at 10,000 g for 10 min. The pellet was washed once with FLIPR assay buffer (75 mM Mannitol, 25 mM Sucrose, 5 mM Potassium Phosphate Monobasic, 20 mM Tris base, 100 mM KCl, 0.1% BSA adjusted to pH 7.4 with 5M HCl) centrifuged again, then resuspended in FLIPR assay buffer to a concentration of 8.8 mg/ml protein.
Tested compounds (10 mM stock in DMSO) were serially diluted in DMSO in half log steps to generate 10 test concentrations (final concentrations in assay 30 μM to 1 nM). An intermediate dilution of 5 μl DMSO samples into 247 μl FLIPR assay buffer was carried out prior to transfer of 5 μl into duplicate wells of a 384 well polypropylene assay plate. Control wells were 0.5% (v/v) DMSO and 5 μM cyclosporin A.
A stock mitochondria/Fluo5N assay solution was prepared in 5.6 ml FLIPR assay buffer (at RT) supplemented with succinate disodium salt (10 mM), rotenone (1 μM), Fluo5N pentapotassium salt (2 μM) and 1 ml mitochondria suspension, then transferred (15 μl) into the assay plate containing test compounds and incubated for 10 min at RT. Assay plates were processed for fluorescence detection on either a FLIPR Tetra (Molecular Devices) or CLARIOstar (BMG) plate reader. For kinetic fluorescence detection on the FLIPR, dye fluorescence was measured every 3 sec for a total of 10 min. After 12 sec, a 2.5 μl bolus of CaCl2 (75 μM) was added from a source plate containing 675 μM CaCl2 in FLIPR assay buffer. Alternatively, the 2.5 μl addition of CaCl2 was performed using a Viaflow 384, plates were incubated at RT for 10 min, and dye fluorescence measured after 10 min on the CLARIOstar plate reader. pIC50 values for tested compounds were calculated using the fluorescence value collected at the 10 min timepoint on either plate reader, with % inhibition calculated using the DMSO control and cyclosporin A values as 0 and 100% respectively.
As to `O=C(NCC1(Cc2ccccc2)CCC1)c1ccnc(=O)[nH]1` [Example 6, N-((1-benzylcyclobutyl)methyl)-2-oxo-2,3-dihydropyrimidine-4-carboxamide], the “mPTP Rat liver pIC50” value was found to be 5.13.

As to `O=C(NCC1(Cc2ccc(F)cc2F)CCOCC1)c1nccc(=O)[nH]1` [Example 185], the “mPTP Rat liver pIC50” value was 6.34.

For the molecule `Cn1nc(C(=O)NCC2(Cc3ccc(F)cc3F)CCCO2)[nH]c1=O` (stereo not shown) [Example 120], the “mPTP Rat liver pIC50” value turned out to be 6.51.

With `CC[C@@H](Cc1ccc(F)cc1F)C(C)NC(=O)c1nn(C)c(=O)[nH]1` (stereo partly drawn) [Example 141, N-[(3S)-3-[(2,4-difluorophenyl)methyl]pentan-2-yl]-1-methyl-5-oxo-4H-1,2,4-triazole-3-carboxamide], the “mPTP Rat liver pIC50” value was determined as 6.44.

For `CCC(CNC(=O)c1nn(C)c(=O)[nH]1)Cc1ccc2c(c1)CCO2` (stereo not shown) [Example 172], the “mPTP Rat liver pIC50” value is 5.41.

`CC[C@H](CNC(=O)c1nccc(=O)[nH]1)Cc1ccc(F)cc1F` [Example 163]: the “mPTP Rat liver pIC50” value is on record as 5.38.

With `O=C(NC[C@H](Cc1ccc(F)cc1F)C1CC1)c1coc(=O)[nH]1` [Example 137], the “mPTP Rat liver pIC50” value amounted to 5.58.

With `O=C(NCC1(Cc2cc(F)c(F)cc2F)CCC1)c1cncc(=O)[nH]1` [Example 148], the “mPTP Rat liver pIC50” value was 6.58.

As to `Cn1nc(C(=O)NC[C@H](Cc2ccc(F)c(F)c2)C2CC2)[nH]c1=S` [Example 118, (R)-N-(2-cyclopropyl-3-(3,4-difluorophenyl)propyl)-1-methyl-5-thioxo-4,5-dihydro-1H-1,2,4-triazole-3-carboxamide], the “mPTP Rat liver pIC50” value is given as 6.26.

Take `Cn1nc(C(=O)NCC2(Cc3cccc(Cl)c3F)CCC2)[nH]c1=O` [Example 85, N-((1-(3-Chloro-2-fluorobenzyl)cyclobutyl)methyl)-1-methyl-5-oxo-4,5-dihydro-1H-1,2,4-triazole-3-carboxamide]: the “mPTP Rat liver pIC50” value was 5.83.

Turning to `CC[C@H](CNC(=O)c1nn(C)c(=O)[nH]1)Cc1c(F)cc(F)cc1F` [Example 125], the “mPTP Rat liver pIC50” value is recorded as 6.55.

As to `CC(NC(=O)c1nn(C)c(=O)[nH]1)C(C)(C)Cc1ccccc1` (single isomer, unassigned) [Example 39A, N-(3,3-dimethyl-4-phenylbutan-2-yl)-1-methyl-5-oxo-4,5-dihydro-1H-1,2,4-triazole-3-carboxamide], the “mPTP Rat liver pIC50” value is listed as less than 4.57.

For the molecule `Cn1nc(C(=O)NCC2(Cc3ccc(F)cc3OC(F)(F)F)CCC2)[nH]c1=O` [Example 102, N-((1-(4-fluoro-2-(trifluoromethoxy)benzyl)cyclobutyl)methyl)-1-methyl-5-oxo-4,5-dihydro-1H-1,2,4-triazole-3-carboxamide], the “mPTP Rat liver pIC50” value is recorded as less than 4.57.

Turning to `O=C(NCC1(Cc2ccc(F)cc2F)CCC1)c1cnn[nH]1` [Example 170], the “mPTP Rat liver pIC50” value is 5.65.

In the case of `Cn1nc(C(=O)NCC(Cc2c(F)cc(F)cc2Cl)C2CC2)[nH]c1=O` (stereo not shown) [Example 220], the “mPTP Rat liver pIC50” value is listed as 5.56.

Regarding `O=C(NC[C@H](Cc1ccc(F)cc1F)C1CC1)c1cnc(=O)[nH]c1` [Example 147], the “mPTP Rat liver pIC50” value was less than 4.57.

In the case of `Cn1nc(C(=O)NCC2(Cc3ccc(F)cc3F)CCC2)nc1CO` [Example 208], the “mPTP Rat liver pIC50” value is listed as less than 4.57.

Turning to `Cn1nc(C(=O)NCC(Cc2ccc(F)cc2F)C2CC2)[nH]c1=O` (stereo not shown) [Example 93, N-(2-Cyclopropyl-3-(2,4-difluorophenyl)propyl)-1-methyl-5-oxo-4,5-dihydro-1H-1,2,4-triazole-3-carboxamide], the “mPTP Rat liver pIC50” value is given as 6.58.

Take `Cn1nc(C(=O)NCC(Cc2ccc(Cl)cc2F)C2CC2)[nH]c1=O` (stereo not shown) [Example 222]: the “mPTP Rat liver pIC50” value is given as 6.11.

Take `CCC(Cc1ccc(F)cc1F)CN(C)C(=O)c1nn(C)c(=O)[nH]1` (stereo not shown) [Example 179, N-(2-(2,4-difluorobenzyl)butyl)-N,1-dimethyl-5-oxo-4,5-dihydro-1H-1,2,4-triazole-3-carboxamide]: the “mPTP Rat liver pIC50” value was less than 4.57.

Take `Cc1cccc(C)c1CC1(CNC(=O)c2nn(C)c(=O)[nH]2)CCC1` [Example 108, N-((1-(2,6-dimethylbenzyl)cyclobutyl)methyl)-1-methyl-5-oxo-4,5-dihydro-1H-1,2,4-triazole-3-carboxamide]: the “mPTP Rat liver pIC50” value is less than 4.57.

Consider `Cc1cc(=O)[nH]c(C(=O)NCC2(Cc3ccc(F)cc3F)CCC2)n1` [Example 200], for which the “mPTP Rat liver pIC50” value is reported as less than 4.57.

`O=C(NCC1(Cc2ccc(F)cc2F)CCC1)c1nnc(C(F)(F)F)[nH]1` [Example 105, N-((1-(2,4-difluorobenzyl)cyclobutyl)methyl)-5-(trifluoromethyl)-4H-1,2,4-triazole-3-carboxamide]: the “mPTP Rat liver pIC50” value was less than 4.57.

As for `Cc1cc(Cl)ccc1CC1(CNC(=O)c2nn(C)c(=O)[nH]2)CCC1` [Example 91, N-((1-(4-Chloro-2-methylbenzyl)cyclobutyl)methyl)-1-methyl-5-oxo-4,5-dihydro-1H-1,2,4-triazole-3-carboxamide], the “mPTP Rat liver pIC50” value is 5.75.

As for `Cn1nc(C(=O)NCC(C)(C)Cc2ccccc2)ccc1=O` [Example 67, N-(2,2-dimethyl-3-phenylpropyl)-1-methyl-6-oxo-1,6-dihydro-pyridazine-3-carboxamide], the “mPTP Rat liver pIC50” value is reported as less than 4.52.

Regarding `Cn1nc(C(=O)NCC2(Cc3ccc(C(F)(F)F)cc3F)CCC2)[nH]c1=O` [Example 104, N-((1-(2-fluoro-4-(trifluoromethyl)benzyl)cyclobutyl)methyl)-1-methyl-5-oxo-4,5-dihydro-1H-1,2,4-triazole-3-carboxamide], the “mPTP Rat liver pIC50” value was less than 4.57.

As to `CC(C)(CNC(=O)c1cc(C(F)(F)F)n[nH]1)Cc1ccccc1` [Example 69, N-(2,2-dimethyl-3-phenylpropyl)-3-(trifluoromethyl)-1H-pyrazole-5-carboxamide], the “mPTP Rat liver pIC50” value is on record as less than 4.52.

With `Cc1cccc(CC2(CNC(=O)c3nn(C)c(=O)[nH]3)CCC2)c1` [Example 89, 1-Methyl-N-((1-(3-methylbenzyl)cyclobutyl)methyl)-5-oxo-4,5-dihydro-1H-1,2,4-triazole-3-carboxamide], the “mPTP Rat liver pIC50” value stood at 6.05.

Regarding `O=C(NCC1(Cc2cc(F)cc(F)c2)CCC1)c1ccc(=O)[nH]n1` [Example 176], the “mPTP Rat liver pIC50” value is 4.8.

For `O=C(NC[C@H](Cc1ccc(F)cc1F)C1CC1)c1cc(=O)[nH]o1` [Example 136], the “mPTP Rat liver pIC50” value came out at 6.39.

Consider `COCc1nnc(C(=O)NCC2(Cc3ccc(F)cc3F)CCC2)[nH]1` [Example 206], for which the “mPTP Rat liver pIC50” value came to 5.24.

With `Cn1nc(C(=O)NC[C@@H](Cc2ccc(F)cc2F)C2CC2)[nH]c1=O` [Example 97, (S)—N-(2-cyclopropyl-3-(2,4-difluorophenyl)propyl)-1-methyl-5-oxo-4,5-dihydro-1H-1,2,4-triazole-3-carboxamide], the “mPTP Rat liver pIC50” value was found to be 5.66.

On to `O=C(NCC1(Cc2ccc(F)c(F)c2)CCC1)c1noc(=O)[nH]1` [Example 202, N-((1-(3,4-difluorobenzyl)cyclobutyl)methyl)-5-oxo-4,5-dihydro-1,2,4-oxadiazole-3-carboxamide], for which the “mPTP Rat liver pIC50” value turned out to be 5.61.

Turning to `O=C(NC[C@H](Cc1ccc(F)cc1F)C1CC1)c1cncc(=O)[nH]1` [Example 154], the “mPTP Rat liver pIC50” value amounted to 5.54.

Regarding `CC(NC(=O)c1nn(C)c(=O)[nH]1)[C@H](Cc1ccc(F)cc1F)C1CC1` (stereo partly shown) [Example 196], the “mPTP Rat liver pIC50” value is listed as 6.56.

On to `Cn1nc(C(=O)NCC2CCc3ccccc3C2)[nH]c1=O` (stereo not shown) [Example 60], for which the “mPTP Rat liver pIC50” value stood at 5.10.

For `Cn1nc(C(=O)NC[C@H](Cc2ccccc2)C2CC2)[nH]c1=O` [Example 124], the “mPTP Rat liver pIC50” value came to 6.76.
